# Experimental data published in paper PMC5416915, “Elucidation of salicylate attachment in celesticetin biosynthesis opens the door to create a library of more efficient hybrid lincosamide antibiotics” (Chemical Science, 2017).
# Tests used:
# Assay type in all cases: biochemical
# Ccb2 = target: T1, Ccb2 (Streptomyces caelestis, UniProt E9JET8); test: LC-MS detection of acyl-AMP conjugate; conditions: ATP
# T1 construct: recombinant, heterologously produced in and purified from E. coli; 548 residues
# T1 sequence (E9JET8 1-548): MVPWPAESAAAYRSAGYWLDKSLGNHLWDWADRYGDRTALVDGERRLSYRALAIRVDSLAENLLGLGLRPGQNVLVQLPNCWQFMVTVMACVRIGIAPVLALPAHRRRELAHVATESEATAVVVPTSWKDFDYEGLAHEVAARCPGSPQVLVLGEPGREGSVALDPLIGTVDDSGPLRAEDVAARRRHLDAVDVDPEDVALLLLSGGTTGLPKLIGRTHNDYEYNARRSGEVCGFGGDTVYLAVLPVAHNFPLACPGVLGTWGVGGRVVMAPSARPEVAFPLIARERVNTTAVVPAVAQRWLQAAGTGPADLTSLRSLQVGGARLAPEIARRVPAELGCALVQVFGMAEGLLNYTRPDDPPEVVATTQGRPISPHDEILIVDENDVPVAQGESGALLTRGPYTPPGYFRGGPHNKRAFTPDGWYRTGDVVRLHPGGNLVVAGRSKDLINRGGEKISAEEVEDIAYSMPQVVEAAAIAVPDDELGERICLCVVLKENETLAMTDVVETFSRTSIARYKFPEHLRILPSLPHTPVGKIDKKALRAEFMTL
# CcbF [1] = target: T2, CcbF (Streptomyces caelestis, UniProt E9JES7); test: LC-MS, in vitro cascade with Ccb5 and Ccb4; conditions: PLP-dependent; coupled with Ccb5 and Ccb4 to intermediate 45
# T2 construct: recombinant celesticetin biosynthetic protein; construct not described in main text
# T2 sequence (E9JES7 1-416): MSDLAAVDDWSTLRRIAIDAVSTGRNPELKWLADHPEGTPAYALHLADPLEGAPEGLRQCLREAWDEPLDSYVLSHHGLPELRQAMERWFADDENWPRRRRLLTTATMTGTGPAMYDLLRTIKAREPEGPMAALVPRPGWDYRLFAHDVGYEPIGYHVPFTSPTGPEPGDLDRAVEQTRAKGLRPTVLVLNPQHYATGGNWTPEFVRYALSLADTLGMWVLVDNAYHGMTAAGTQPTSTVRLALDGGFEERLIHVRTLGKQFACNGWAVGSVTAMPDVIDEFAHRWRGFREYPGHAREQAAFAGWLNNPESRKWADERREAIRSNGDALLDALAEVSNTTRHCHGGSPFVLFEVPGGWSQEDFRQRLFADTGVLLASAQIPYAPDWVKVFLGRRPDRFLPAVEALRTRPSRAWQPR
# CcbF [2] = target: T2, CcbF; test: LC-MS, in vitro cascade with Ccb5 with or without Ccb4; conditions: PLP-dependent; coupled with Ccb5
compound,measurement,setting,value
"O=C(O)c1ccccc1 [compound 6, benzoic acid]",LC-MS detection of acyl-AMP conjugate,Ccb2,We detected products
"CCC[C@@H]1C[C@@H](C(=O)N[C@@H]([C@H]2O[C@H](SC[C@H](N)C(=O)O)[C@H](O)[C@@H](O)[C@H]2O)[C@@H](C)O)N(C)C1 [2a, lincomycin intermediate 2a]","LC-MS, in vitro cascade with Ccb5 and Ccb4",CcbF [1],"in vitro processing of lincomycin intermediate 2a by the celesticetin biosynthetic proteins CcbF, Ccb5, and Ccb4"
"CCC[C@H]1CN[C@H](C(=O)N[C@@H]([C@H]2O[C@H](SC[C@H](N)C(=O)O)[C@H](O)[C@@H](O)[C@H]2O)[C@@H](C)O)C1 [1a, lincomycin intermediate 1a]","LC-MS, in vitro cascade with Ccb5 with or without Ccb4",CcbF [2],Lincomycin intermediates 1a and 2a processed by celesticetin biosynthetic proteins
